The target in this experiment is HDAC1 (Homo sapiens, UniProt Q13547). The following applies: HDAC1 0.1 μM preincubated 10 min with 5 μM TSA, then 1b or 2b.
HDAC1, sequence (Q13547 whole entry): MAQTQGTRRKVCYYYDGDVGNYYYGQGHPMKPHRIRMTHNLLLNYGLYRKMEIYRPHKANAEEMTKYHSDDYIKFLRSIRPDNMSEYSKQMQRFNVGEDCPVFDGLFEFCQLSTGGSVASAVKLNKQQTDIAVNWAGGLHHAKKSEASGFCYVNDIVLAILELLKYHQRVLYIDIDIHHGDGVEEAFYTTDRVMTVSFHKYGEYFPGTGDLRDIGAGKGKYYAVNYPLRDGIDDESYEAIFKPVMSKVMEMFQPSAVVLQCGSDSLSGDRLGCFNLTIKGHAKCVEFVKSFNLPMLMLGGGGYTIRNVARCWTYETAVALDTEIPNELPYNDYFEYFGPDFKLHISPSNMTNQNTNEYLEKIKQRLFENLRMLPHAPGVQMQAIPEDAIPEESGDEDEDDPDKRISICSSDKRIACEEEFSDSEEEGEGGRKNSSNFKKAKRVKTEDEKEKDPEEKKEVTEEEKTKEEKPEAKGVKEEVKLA

For the substance trichostatin A [TSA], the “covalent modification of HDAC1 remaining after preincubation with TSA” value is listed as ~ 10%.
